From US10988523B2, “Modified lipidated Relaxin B chain peptides and their therapeutic use” (Sanofi, priority 2018, dated 2021)
*1 amine or outer side, *2 acyl side, *3 side chain or, on linkers, in order; H or OH if unused. Where a SMILES comes first, the peptide text is derived from it. Side-chain parts run from the residue outwards. [ ]: non-standard residue; d: D form. The star is where a group is joined. X10 = CCCCCCCCCCCCCCCC(=O)N[C@@H](CCC(=O)N[C@@H](CCC(=O)N[C@@H](CCC(=O)NCCCOCCOCCOCCCNC(=O)CCC(=O)NCCCOCCOCCOCCCN*)C(=O)O)C(=O)O)C(=O)O; Docosanoyl = CCCCCCCCCCCCCCCCCCCCCC(=O)*; Arachidoyl = CCCCCCCCCCCCCCCCCCCC(=O)*; γGlu = O=C(O)[C@H](CCC(=O)[*:2])N[*:1]; Pentadecanoyl = CCCCCCCCCCCCCCC(=O)*; Palmitoyl = CCCCCCCCCCCCCCCC(=O)*; Myristoyl = CCCCCCCCCCCCCC(=O)*; Suc = O=C(CCC(=O)[*:2])[*:1]; αMeK = C[C@](N)(CCCCN)C(=O)O; Nle = CCCC[C@H](N)C(=O)O; AEEA = NCCOCCOCC(=O)O; Aib = CC(C)(N)C(=O)O

Molecular target: T1, RXFP1 (Homo sapiens, UniProt Q9HBX9)
T1 construct: OVCAR5 cells expressing endogenous RXFP1; endogenous in cells; host or cells: OVCAR5 cells
T1 sequence (Q9HBX9 1-757): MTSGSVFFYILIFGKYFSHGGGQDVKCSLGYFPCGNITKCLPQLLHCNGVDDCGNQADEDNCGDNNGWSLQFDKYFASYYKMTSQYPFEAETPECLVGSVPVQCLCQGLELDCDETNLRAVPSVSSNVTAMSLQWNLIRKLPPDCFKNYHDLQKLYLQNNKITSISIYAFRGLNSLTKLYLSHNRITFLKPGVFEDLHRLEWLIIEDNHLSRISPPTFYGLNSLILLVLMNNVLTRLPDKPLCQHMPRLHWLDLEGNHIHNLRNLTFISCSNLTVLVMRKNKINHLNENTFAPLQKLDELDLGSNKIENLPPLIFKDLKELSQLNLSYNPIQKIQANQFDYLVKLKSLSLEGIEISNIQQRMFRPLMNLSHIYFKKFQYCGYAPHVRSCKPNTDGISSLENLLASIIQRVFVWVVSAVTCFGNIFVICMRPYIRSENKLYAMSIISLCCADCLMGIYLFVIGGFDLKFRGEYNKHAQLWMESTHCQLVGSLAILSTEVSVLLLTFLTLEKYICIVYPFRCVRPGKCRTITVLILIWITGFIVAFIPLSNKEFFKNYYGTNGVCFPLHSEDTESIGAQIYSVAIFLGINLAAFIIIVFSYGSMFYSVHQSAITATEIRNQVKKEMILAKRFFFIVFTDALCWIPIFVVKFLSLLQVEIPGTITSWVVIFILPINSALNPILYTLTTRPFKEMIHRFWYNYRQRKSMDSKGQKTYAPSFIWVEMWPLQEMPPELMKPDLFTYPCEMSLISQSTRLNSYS
Assay: OVCAR5 cAMP assay (HTRF), RXFP1 agonist activity
Assay type: cell-based
Conditions: for EC50: OVCAR5 cells, cAMP HTRF, read-out: EC50 (nM), OVCAR 5 cells (cAMP); for Emax: OVCAR-5, maximal cAMP relative to H2-relaxin maximum (100%), read-out: EMax, OVCAR 5 cells (cAMP)
Procedure, shortened: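 OVCAR5 cells (endogenous RXFP1) pretreated 40 min at 37° C with 1 mM IBMX, then exposed to peptides in serum-free medium for 30 min at 37° C. Lysate cAMP read by HTRF; EC50 from variable-slope sigmoidal fit; Emax as % of H2-relaxin maximal cAMP in same run.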

CCCCCCCCCCCCCCCC(=O)N[C@@H](CCC(=O)NCCOCCOCC(=O)N[C@@H](CCC(=O)N[C@@H](CCC(=O)NCCOCCOCC(=O)NCCOCCOCC(=O)NCCCC[C@H](NC(=O)[C@H](CCCCNC(C)=O)NC(=O)[C@H](CCCCN)NC(=O)[C@H](CCCNC(=N)N)NC(=O)C(C)(C)NC(=O)[C@H](CO)NC(=O)[C@H](Cc1c[nH]c2ccccc12)NC(=O)[C@@H](NC(=O)[C@H](CO)NC(=O)[C@H](CCCC)NC(=O)CNC(=O)[C@H](CCC(=O)O)NC(=O)C(C)(C)NC(=O)C(C)(C)NC(=O)[C@@H](NC(=O)[C@H](CCCCNC(C)=O)NC(=O)[C@H](C)NC(=O)[C@H](CCCNC(=N)N)NC(=O)[C@@H](NC(=O)[C@H](CCCCN)NC(=O)[C@H](CCC(=O)O)NC(=O)[C@H](CCCNC(=N)N)NC(=O)CNC(=O)[C@H](CCC(=O)O)NC(=O)[C@H](CC(C)C)NC(C)=O)C(C)C)[C@@H](C)CC)[C@@H](C)O)C(N)=O)C(=O)O)C(=O)O)C(=O)O [compound 165] (Ac-LEGREKVRAK(Ac)I[Aib][Aib]EG[Nle]STWS[Aib]RKK(Ac)K([AEEA-AEEA-γGlu-γGlu-AEEA-γGlu-Palmitoyl])-NH2)
EC50: 0.38 nM | Emax: 105%

CCCCCCCCCCCCCCCC(=O)N[C@@H](CCC(=O)N[C@@H](CCC(=O)N[C@@H](CCC(=O)NCCCOCCOCCOCCCNC(=O)CCC(=O)NCCCOCCOCCOCCCNC(=O)CCC(=O)NCCCC[C@H](NC(=O)[C@H](CCCCNC(C)=O)NC(=O)[C@H](CCCCN)NC(=O)[C@H](CCCNC(=N)N)NC(=O)C(C)(C)NC(=O)[C@H](CO)NC(=O)[C@H](Cc1c[nH]c2ccccc12)NC(=O)[C@@H](NC(=O)[C@H](CO)NC(=O)[C@H](CCCC)NC(=O)CNC(=O)[C@H](CCC(=O)O)NC(=O)C(C)(C)NC(=O)C(C)(C)NC(=O)[C@@H](NC(=O)[C@H](CCCCNC(C)=O)NC(=O)[C@H](C)NC(=O)[C@H](CCCNC(=N)N)NC(=O)[C@@H](NC(=O)[C@H](CCCCN)NC(=O)[C@H](CCC(=O)O)NC(=O)[C@H](CCCNC(=N)N)NC(=O)CNC(=O)[C@H](CCC(=O)O)NC(=O)[C@H](CC(C)C)NC(C)=O)C(C)C)[C@@H](C)CC)[C@@H](C)O)C(N)=O)C(=O)O)C(=O)O)C(=O)O [compound 166] (Ac-LEGREKVRAK(Ac)I[Aib][Aib]EG[Nle]STWS[Aib]RKK(Ac)K([Suc-X10])-NH2)
EC50: 0.26 nM | Emax: 92%

CCCCCCCCCCCCCCC(=O)N[C@@H](CCC(=O)N[C@@H](CCC(=O)N[C@@H](CCC(=O)N[C@@H](CCC(=O)NCCCC[C@H](NC(=O)COCCOCCNC(=O)COCCOCCNC(=O)COCCOCCNC(=O)COCCOCCNC(=O)[C@H](CCCCNC(C)=O)NC(=O)[C@H](C)NC(=O)[C@H](CCCNC(=N)N)NC(=O)[C@](C)(CCCCN)NC(=O)[C@H](CO)NC(=O)[C@H](Cc1ccccc1)NC(=O)[C@@H](NC(=O)[C@H](CO)NC(=O)[C@H](CCCC)NC(=O)CNC(=O)[C@H](CCC(=O)O)NC(=O)C(C)(C)NC(=O)C(C)(C)NC(=O)[C@@H](NC(=O)[C@H](CCCCNC(C)=O)NC(=O)[C@H](C)NC(=O)[C@H](CCCNC(=N)N)NC(=O)[C@@H](NC(=O)[C@H](CCCCN)NC(=O)[C@H](CCC(=O)O)NC(=O)[C@H](CCCNC(=N)N)NC(=O)CNC(=O)[C@H](CCC(=O)O)NC(=O)[C@H](CC(C)C)NC(C)=O)C(C)C)[C@@H](C)CC)[C@@H](C)O)C(N)=O)C(=O)O)C(=O)O)C(=O)O)C(=O)O [compound 167] (Ac-LEGREKVRAK(Ac)I[Aib][Aib]EG[Nle]STFS[αMeK]RAK(Ac)[AEEA][AEEA][AEEA][AEEA]K([γGlu-γGlu-γGlu-γGlu-Pentadecanoyl])-NH2)
EC50: 0.05 nM | Emax: 93%

CCCCCCCCCCCCCCC(=O)N[C@@H](CCC(=O)N[C@@H](CCC(=O)NCCCC[C@H](NC(=O)CC[C@H](NC(=O)CC[C@H](NC(=O)COCCOCCNC(=O)COCCOCCNC(=O)COCCOCCNC(=O)COCCOCCNC(=O)[C@H](CCCCNC(C)=O)NC(=O)[C@H](C)NC(=O)[C@H](CCCNC(=N)N)NC(=O)[C@](C)(CCCCN)NC(=O)[C@H](CO)NC(=O)[C@H](Cc1ccccc1)NC(=O)[C@@H](NC(=O)[C@H](CO)NC(=O)[C@H](CCCC)NC(=O)CNC(=O)[C@H](CCC(=O)O)NC(=O)C(C)(C)NC(=O)C(C)(C)NC(=O)[C@@H](NC(=O)[C@H](CCCCNC(C)=O)NC(=O)[C@H](C)NC(=O)[C@H](CCCNC(=N)N)NC(=O)[C@@H](NC(=O)[C@H](CCCCN)NC(=O)[C@H](CCC(=O)O)NC(=O)[C@H](CCCNC(=N)N)NC(=O)CNC(=O)[C@H](CCC(=O)O)NC(=O)[C@H](CC(C)C)NC(C)=O)C(C)C)[C@@H](C)CC)[C@@H](C)O)C(=O)O)C(=O)O)C(N)=O)C(=O)O)C(=O)O [compound 168] (Ac-LEGREKVRAK(Ac)I[Aib][Aib]EG[Nle]STFS[αMeK]RAK(Ac)[AEEA][AEEA][AEEA][AEEA][γGlu][γGlu]K([γGlu-γGlu-Pentadecanoyl])-NH2)
EC50: 0.06 nM | Emax: 91%

CCCCCCCCCCCCCCCCCCCC(=O)N[C@@H](CCC(=O)N[C@@H](CCC(=O)N[C@@H](CCC(=O)NCCOCCOCC(=O)NCCOCCOCC(=O)NCCOCCOCC(=O)NCCCC[C@H](NC(=O)[C@H](CCCCNC(C)=O)NC(=O)[C@H](CCCCN)NC(=O)[C@H](CCCNC(=N)N)NC(=O)C(C)(C)NC(=O)[C@H](CO)NC(=O)[C@H](Cc1c[nH]c2ccccc12)NC(=O)[C@@H](NC(=O)[C@H](CO)NC(=O)[C@H](CCCC)NC(=O)CNC(=O)[C@H](CCC(=O)O)NC(=O)C(C)(C)NC(=O)C(C)(C)NC(=O)[C@@H](NC(=O)[C@H](CCCCNC(C)=O)NC(=O)[C@H](C)NC(=O)[C@H](CCCNC(=N)N)NC(=O)[C@@H](NC(=O)[C@H](CCCCN)NC(=O)[C@H](CCC(=O)O)NC(=O)[C@H](CCCNC(=N)N)NC(=O)CNC(=O)[C@H](CCC(=O)O)NC(=O)[C@H](CC(C)C)NC(C)=O)C(C)C)[C@@H](C)CC)[C@@H](C)O)C(N)=O)C(=O)O)C(=O)O)C(=O)O [compound 171] (Ac-LEGREKVRAK(Ac)I[Aib][Aib]EG[Nle]STWS[Aib]RKK(Ac)K([AEEA-AEEA-AEEA-γGlu-γGlu-γGlu-Arachidoyl])-NH2)
EC50: 0.18 nM | Emax: 83%

CCCCCCCCCCCCCC(=O)N[C@@H](CCC(=O)N[C@@H](CCC(=O)N[C@@H](CCC(=O)N[C@@H](CCC(=O)NCCCC[C@H](NC(=O)COCCOCCNC(=O)COCCOCCNC(=O)COCCOCCNC(=O)COCCOCCNC(=O)[C@H](CCCCNC(C)=O)NC(=O)[C@H](C)NC(=O)[C@H](CCCNC(=N)N)NC(=O)[C@](C)(CCCCN)NC(=O)[C@H](CO)NC(=O)[C@H](Cc1ccccc1)NC(=O)[C@@H](NC(=O)[C@H](CO)NC(=O)[C@H](CCCC)NC(=O)CNC(=O)[C@H](CCC(=O)O)NC(=O)C(C)(C)NC(=O)C(C)(C)NC(=O)[C@@H](NC(=O)[C@H](CCCCNC(C)=O)NC(=O)[C@H](C)NC(=O)[C@H](CCCNC(=N)N)NC(=O)[C@@H](NC(=O)[C@H](CCCCN)NC(=O)[C@H](CCC(=O)O)NC(=O)[C@H](CCCNC(=N)N)NC(=O)CNC(=O)[C@H](CCC(=O)O)NC(=O)[C@H](CC(C)C)NC(C)=O)C(C)C)[C@@H](C)CC)[C@@H](C)O)C(N)=O)C(=O)O)C(=O)O)C(=O)O)C(=O)O [compound 172] (Ac-LEGREKVRAK(Ac)I[Aib][Aib]EG[Nle]STFS[αMeK]RAK(Ac)[AEEA][AEEA][AEEA][AEEA]K([γGlu-γGlu-γGlu-γGlu-Myristoyl])-NH2)
EC50: 0.56 nM | Emax: 95%

CCCCCCCCCCCCCCCCCCCCCC(=O)N[C@@H](CCC(=O)N[C@@H](CCC(=O)N[C@@H](CCC(=O)NCCOCCOCC(=O)NCCOCCOCC(=O)NCCOCCOCC(=O)NCCCC[C@H](NC(=O)[C@H](CCCCNC(C)=O)NC(=O)[C@H](CCCCN)NC(=O)[C@H](CCCNC(=N)N)NC(=O)C(C)(C)NC(=O)[C@H](CO)NC(=O)[C@H](Cc1c[nH]c2ccccc12)NC(=O)[C@@H](NC(=O)[C@H](CO)NC(=O)[C@H](CCCC)NC(=O)CNC(=O)[C@H](CCC(=O)O)NC(=O)C(C)(C)NC(=O)C(C)(C)NC(=O)[C@@H](NC(=O)[C@H](CCCCNC(C)=O)NC(=O)[C@H](C)NC(=O)[C@H](CCCNC(=N)N)NC(=O)[C@@H](NC(=O)[C@H](CCCCN)NC(=O)[C@H](CCC(=O)O)NC(=O)[C@H](CCCNC(=N)N)NC(=O)CNC(=O)[C@H](CCC(=O)O)NC(=O)[C@H](CC(C)C)NC(C)=O)C(C)C)[C@@H](C)CC)[C@@H](C)O)C(N)=O)C(=O)O)C(=O)O)C(=O)O [compound 173] (Ac-LEGREKVRAK(Ac)I[Aib][Aib]EG[Nle]STWS[Aib]RKK(Ac)K([AEEA-AEEA-AEEA-γGlu-γGlu-γGlu-Docosanoyl])-NH2)
EC50: 0.19 nM | Emax: 85%
